Results published in US11421349B2, “Photoactivatable fibers and fabric media” (KLOX TECHNOLOGIES INC., priority 2014, dated 2022).

Key:
Type in all cases: physicochemical
[1] = Effect of addition of a lubricant on the fluorescence emission of photoactivatable (doped) fibers; settings: same concentration, lurol oil added, FIG. 5B
From the text: In the case of low concentrations of chromophore it can slightly red shift, and reduces bleaching time considerably. In higher concentrations of chromophore it red shifts, as well as increase fluorescence. The most effect seems to be around 10 g/L of lurol oil. Initially the fluorescence of Eosin Y doped fibers was 0.01 (FIG. 5A), but with the lurol oil added the fluorescence is boosted to 0.7. A comparison was done of Eosin Y and Fluorescein at the same concentration with lurol oil added.

[2] = Qualitative analysis of dental fiber doping (fluorescence under blue lamp)
From the text: Commercially available dental fibers were dipped into solutions of Eosin […], or 0.1 g/L) for 10 seconds. The fibers were taken out and observed for color, then put under a blue lamp and the fluorescence was observed qualitatively. […] Dental fibers were dipped into solutions of fluorescein (50 […]) for 10 seconds. The fibers were then taken out and observed for color, then put under a blue lamp and the fluorescence was observed qualitatively. […] Dental fibers were dipped into solutions of fluorescein:Eosin […] total chromophore) solution for 10 seconds again. The fibers were then taken out and observed for color, then put under a blue lamp and the fluorescence was observed qualitatively.

[3] = Effect of addition of a lubricant (lurol oil) on the fluorescence emitted from Eosin Y solution; settings: 320 μL lurol oil added to 2 mL of 109 μg/g Eosin Y in water
Protocol: The fluorescence of these two solutions was measured to determine if the lurol oil had any effect (FIG. 4).

Compound | photo-degradation compared with Eosin Y [1] | fluorescence observed qualitatively under blue lamp ([2]; commercial dental fibers dipped 10 seconds, 300-100 g/L solutions) | fluorescence observed qualitatively under blue lamp ([2]; dental fibers dipped 10 seconds, 10 g/L solution) | fluorescence observed qualitatively under blue lamp ([2]; dental fibers dipped 10 seconds, 50 g/L solution) | photodegradation of Eosin Y solution with lurol oil [3] | shift of the fluorescence of the solution with lurol oil [3] | fluorescence of Eosin Y solution with lurol oil versus without ([3]; FIG. 4)
O=C1OC2(c3ccc(O)cc3Oc3cc(O)ccc32)c2ccccc21 [fluorescein] | photo-degrades faster |  |  |  |  |  | 
O=C([O-])c1ccccc1-c1c2cc(Br)c(=O)c(Br)c-2oc2c(Br)c([O-])c(Br)cc12.[Na+].[Na+] [Eosin Y, 2′,4′,5′,7′-tetrabromo-fluorescein, dianion] |  | little fluorescence | significant increase in fluorescence | showed fluorescence | barely photodegraded | red shifted | almost twice as fluorescent
